Test: gradient 5% acetonitrile 3 min, to 50% in 2 min, to 85% in 15 min, held 3 min, 100 µL/min
Details: column: Zorbax Extend-C18 2.1 x 50 mm; eluents: water / acetonitrile, 0.1% formic acid
Outline: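 The system's dead and dwell volumes were 40 μL and 900 μL, with a Zorbax Extend-C18 column (2.1 × 50 mm, 1.8 μm) run at 100 μL/min in water and acetonitrile containing 0.1% formic acid each. Pure standards were analyzed in mixtures of ~100 molecules by HPLC–quadrupole time-of-flight mass spectrometry in positive and negative ionization mode. Retention time was assigned from computationally picked, manually inspected adduct peaks.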

SMILES	RP-LC retention time [s]
COc1ccc2[nH]c(=O)c(CCC(=O)NCC(C)C)cc2c1	660
Cc1nnc(CNC(=O)c2cc(-c3ccccc3)nn2C)o1	646
Cc1ccccc1S(=O)(=O)N1CC[C@@H]2CN(Cc3cccnc3)[C@@H]2C1	598
Cc1cccc2c(=O)n(C)c(CCC(=O)NCc3cc(F)ccc3F)nc12	814
CCC1Oc2ccc(S(=O)(=O)N3CCC(C(=O)N4CCN(CC)CC4)CC3)cc2NC1=O (stereo not given)	573
CCN(CC)S(=O)(=O)c1ccc(NC(=O)N2CCC(C(=O)Nc3ccc(Cl)cc3)CC2)s1	931
CC(C)CC(=O)N1CCC(COc2ccc(C(=O)NC3CC3)cc2)CC1	758
COc1ccc(-c2noc(C3CCCN3C(=O)Nc3ccc(C)cc3C)n2)cc1 (stereo not given)	925
COc1ccc(Br)cc1CNC(=O)Cn1cnc2onc(C)c2c1=O	815
COc1cn(CC(=O)NCc2ccc3c(c2)OCO3)c(CSc2ccccc2)cc1=O	618
CCn1ccc2c(cc(C(=O)Nc3ccc(C)cc3C)n2C)c1=O	753
O=C(NCc1ccc(F)cc1F)C1CCN(C(=O)c2ncn3c2COC(c2ccc(F)cc2)C3)CC1 (stereo not given)	776
COc1ccc(-c2cc(=S)ss2)cc1	1090
Cn1nc(-c2nc(-c3ccc(F)cc3)no2)c2c1CCN(C(=O)NC1CCCC1)C2	771
O=C1CCC2(CNC(=O)NCCc3ccccc3)CCCC=C2N1 (stereo not given)	623
Cc1ccc(N2CC(c3noc(-c4sccc4C)n3)CC2=O)cc1 (stereo not given)	1040
COc1ccccc1-c1noc(C2CCCN2C(=O)c2sc(C)nc2C)n1 (stereo not given)	750
CC(C)c1ccc(OCC(=O)Nc2nc(-c3ccccc3)cs2)cc1	1240
CC1=C(c2ccc(C)cc2)S(=O)(=O)N=C1N1CCCN(C(=O)CC(C)(C)C)CC1	888
COc1ccccc1-c1nnc(-c2ccc(OC)c(S(=O)(=O)N3CCOCC3)c2)o1	781
Cc1ccc(S(=O)(=O)c2nc(SCC(=O)N3CCCCC3)sc2Cl)cc1	910
CCCS(=O)(=O)NCc1ccc2c(c1)CCN2C(=O)CC(C)C	862
Cc1cc(C(=O)NCCN2CCOCC2)nc2cc(-c3ccccn3)nn12	693

SMILES	RP-LC retention time [s]
O=C(Nc1ccccc1)C1CCCN(S(=O)(=O)c2cc(-c3noc(C4CCCC4)n3)cs2)C1 (stereo not given)	1220
CCOc1cc(C(=O)Nc2cc(=O)n(C)c(=O)n2C)cc(OCC)c1OCC	691
CCc1nn(C)c(=O)c2cc(S(=O)(=O)NCc3ccccc3Cl)cn12	893
COC(=O)c1ccsc1NC(=O)c1cc(-c2ccccc2)on1	1170
O=C(NC1CCCCC1)c1cn(-c2cc(-c3nc(C4CC4)no3)ccn2)cn1	961
COc1cccc(CN2C(=O)CSc3c(c4ccccc4n3C)C2C(=O)NCCCOC(C)C)c1 (stereo not given)	955
CCC(C)NC(=O)NCCC1CCN(S(=O)(=O)c2ccc(F)cc2)CC1 (stereo not given)	814
Cc1noc(C)c1S(=O)(=O)Nc1cccc(-c2nc(-c3cccc(Br)c3)co2)c1	1230
CC(C)CNC(=O)N1CCc2c(c(-c3nc(-c4ccc(F)cc4)no3)nn2C)C1	940
CCNC(=O)C1CCCN(c2nc3ncn(CC(=O)Nc4ccc(CC)cc4)c(=O)c3s2)C1 (stereo not given)	661
O=C(Nc1ccccc1)N1CC(n2ccnc2)C1	569
Cc1noc(C)c1S(=O)(=O)NCC1CCN(C(=O)c2cccn(C)c2=O)CC1	599
COc1ccc(-c2cc3c(=O)n(Cc4nc(-c5ccccc5OC)oc4C)ccn3n2)cc1	975
Cc1n[nH]c(C)c1CCC(=O)NCc1c(F)cccc1F	526
Oc1ccccc1-n1c(-c2ccccc2)ccc1-c1ccccc1	1190
CCN(CC)CCNC(=O)Cc1cc(-c2ccc(F)cc2F)on1	556
Cc1nn(Cc2nc(-c3ccc(NC(=O)C4CCCCC4)cc3)oc2C)c(C)c1C	1020
COc1ccc(N2CCN(c3nc(C(=O)NCCN4CCOCC4)cs3)CC2)cc1	615
CCOc1cc(=O)n2c(c1C(=O)Nc1cc(OC)c(Cl)cc1OC)CCCC2	763
COc1ccccc1OCc1nn2c(CSc3ccccc3)nnc2s1	882
Cn1nccc1C(=O)N1CCCCC1c1nncn1Cc1ccccc1 (stereo not given)	665
COc1ccc(CNC(=O)Cn2nc3c(N4CCSCC4)nccn3c2=O)cc1	762
Cc1cc(C)cc(-c2nnc(Cc3nc(-c4ccccc4F)no3)o2)c1	1080

SMILES	RP-LC retention time [s]
CCN1C(=O)COc2cc(-c3noc(C(=O)NCCC(C)C)n3)ccc21	979
O=C(Nc1ccccc1C(F)(F)F)N(CCc1cccs1)C1CC1	1100
CC1CCCN(CCCNC(=O)C(=O)Nc2ccc3nc4n(c(=O)c3c2)CCCCC4)C1 (stereo not given)	599
CCC(C)n1c(=O)c2ccccc2n(Cc2nc(-c3ccc(Br)cc3)no2)c1=O (stereo not given)	1320
CC(C)n1c(CCNC(=O)c2cccc(Cl)c2)nc2cccnc21	701
COC(=O)c1ccc2c(=O)n(-c3ccc(C)c(F)c3)c(N3CCN(c4ccccn4)CC3)nc2c1	714
CC(C)NC(=O)C1CCCN(S(=O)(=O)c2c[nH]c(C(=O)N3CCCCCC3)c2)C1 (stereo not given)	734
O=C(N1CCC(c2nnc(-c3ccc(F)cc3)o2)CC1)C1(c2ccccc2)CCOCC1	631
O=C(Nc1ccc(Cn2cncn2)cc1)c1cccs1	661
CCc1nc2cc(-c3noc(-c4nn(C)c5ccccc45)n3)ccc2o1	1130
COc1cc(C(=O)Nc2ncc(Cc3cccc4ccccc34)s2)cc(OC)c1OC	1030
Cc1ccc(-c2nc(-c3ccc(-n4cccn4)nc3)no2)cc1	1330
Cc1ccc(NC(=O)C2CCCN2S(=O)(=O)c2cc3c(cc2C)NC(=O)CO3)cc1 (stereo not given)	758
CNC(=O)[C@@H]1CN(S(=O)(=O)c2ccc(Cl)s2)C[C@H]1c1nc(C)no1	758
COC(=O)c1ccc(-c2nc3cnccn3c2Nc2cccc(C(F)(F)F)c2)cc1	945
O=C1CC(c2nc(-c3ccccc3)no2)CN1c1ccc(F)cc1 (stereo not given)	940
O=C(c1cc(-c2ccncc2)n[nH]1)N1CCC(C(=O)N2CCN(c3ncccn3)CC2)CC1	575
Cc1ccc(S(=O)Cc2ccc(C(=O)N3CCN(c4ccccn4)CC3)o2)cc1 (stereo not given)	587
CSc1ccccc1NC(=O)c1nnn(-c2cc(Cl)ccc2C)c1C	1180
COc1ccc(Nc2c(C(=O)N3CCCCC3C)cnc3nc(C)ccc23)cc1OC (stereo not given)	598
O=S(=O)(NCc1ccco1)c1cccc(-c2nc(-c3ccccc3)no2)c1	1050
CCc1nc2cc(-c3noc(-c4sc(C)nc4C)n3)ccc2o1	1060
CCn1c(=O)c2ccccc2n(CC(=O)N2CCC(C(N)=O)CC2)c1=O	601

SMILES	RP-LC retention time [s]
CCOC(=O)c1c(C)oc2ncnc(NCc3ccccn3)c12	671
O=C(c1ccc(-c2cccs2)nc1)N1CCCCCC1	878
CCOC(=O)c1c(C)[nH]c(C(=O)N2CCCC(C(=O)NCCCc3ccccc3)C2)c1C (stereo not given)	867
COc1cccc2[nH]c(C(=O)NCCC(=O)NCCc3c[nH]c4ccccc34)cc12	662
CCC(C)NC(=O)Cn1nc2nc(Nc3ccc(F)cc3)ccn2c1=O (stereo not given)	684
CCNc1cc(N2CCC(CCC(=O)N3CCC(C)CC3)CC2)ncn1	548
COCCNC(=O)C1CCN(c2nccnc2Sc2ccccc2)CC1	764
COCCN1C(=O)c2ccccc2C(C(=O)Nc2ccc(OC)cc2)C12CCCC2 (stereo not given)	852
CCc1noc(NC(C)=O)c1-c1ccc(C)c(S(=O)(=O)Nc2cc(Cl)c(OC)cc2OC)c1	859
COC[C@@H]1CN(S(=O)(=O)C(C)C)C[C@H]1c1ccccn1	619
O=C(Nc1ccc(CC(=O)N2CCOCC2)cc1)NC(c1ccccc1)c1ccccc1	740
CC(C)c1nnc2n1CCN(C(=O)CCC1CCCC1)C2	714
CCOC(=O)c1c(C)oc2ncnc(NC3CCCc4ccccc43)c12 (stereo not given)	1310
Cn1c(=O)n(C)c2cc(CNCCc3ccc(F)cc3)ccc21	609
COc1ccc(NC(=O)c2[nH]c3cc(C)sc3c2CN2CCOCC2)cc1	655
O=C(N1CC(Oc2ccc(-c3nc(-c4ccccc4)no3)cc2)C1)C1(c2ccccc2)CC1	1310
CCN1C(=O)C2(CCN(S(=O)(=O)c3cccc(C(F)(F)F)c3)CC2)c2ccccc21	1120
O=C(NCc1ccncc1)c1ccc(-c2cccs2)nc1	588
Cc1ccc2c(Nc3ccc(F)c(C#N)c3)c(C(=O)N3CCC(C)CC3)cnc2n1	603
O=C1CCCc2cc(S(=O)(=O)N3CCC(C(=O)N4CCN(c5ccccc5)CC4)CC3)ccc2N1	754
Cc1cc(NC(=O)c2c[nH]c3ncccc23)ccc1F	739
